The results in this text go back to PubChem BioAssay (NCI).

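How tested: cells in 96-well plates exposed to compound for 48 hours at five concentrations. Here, GI50 denotes the concentration required for 50% inhibition of growth. TGI: concentration producing complete growth inhibition.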

Test systems include HS 578T breast; HCT-116 colon; NCI-H522 lung; SNB-75 CNS; IGROV1 ovarian; EKVX NSCLC; OVCAR-5 ovarian; SK-MEL-2 melanoma; OVCAR-3 ovarian; NCI/ADR-RES ovarian.
Holding throughout (experiment): NCI anticancer screen, dose series, 48 h

Regarding `COc1cc2c(cc1-c1coc3cc(OCC=C(C)C)ccc3c1=O)OCO2`, the TGI with HS 578T breast was above 100 µM; in the assay with HCT-116 colon it was 51.4 µM; in the assay on NCI-H522 lung, 48.9 µM; in the assay on SNB-75 CNS, above 100 µM; in the assay with IGROV1 ovarian, above 100 µM; in the assay on EKVX NSCLC it was above 100 µM. Also, the TGI with OVCAR-5 ovarian, in the assay with SK-MEL-2 melanoma and in the assay on OVCAR-3 ovarian was above 100 µM in each case.
Turning to `COC/N=C(/N)NC#N`, the TGI in the assay on HCT-116 colon, with NCI-H522 lung, with SNB-75 CNS, in the assay on IGROV1 ovarian, in the assay with EKVX NSCLC and in the assay on OVCAR-5 ovarian was above 100 µM throughout. For the same molecule, the TGI in the assay with SK-MEL-2 melanoma and in the assay with OVCAR-3 ovarian was above 100 µM in each case.
On to `C#C[C@H]1CCCCCC1O` (some centres undefined), for which the TGI with HCT-116 colon, with NCI-H522 lung, in the assay on SNB-75 CNS, with IGROV1 ovarian, in the assay with EKVX NSCLC and in the assay with OVCAR-5 ovarian was above 100 µM each time. Also, the TGI in the assay on SK-MEL-2 melanoma and with OVCAR-3 ovarian was above 100 µM throughout.
For `COc1ccc(-c2onc(-c3c(C)cc(C)cc3C)c2C2=NCCN2)cc1`, the TGI with HCT-116 colon, in the assay on SNB-75 CNS, in the assay with IGROV1 ovarian, with EKVX NSCLC, in the assay on OVCAR-5 ovarian and in the assay with SK-MEL-2 melanoma was above 100 µM in each case.
Turning to `O=c1c(O)cccn1CCCN(CCCn1cccc(O)c1=O)CCn1cccc(O)c1=O`, the GI50 was 2.85 µM in the assay on HCT-116 colon; 7.35 µM in the assay on NCI-H522 lung; 6.1 µM in the assay on SNB-75 CNS; above 100 µM with NCI/ADR-RES ovarian; 23.6 µM in the assay with IGROV1 ovarian; 2.79 µM in the assay on EKVX NSCLC. For the same molecule, the GI50 in the assay with OVCAR-5 ovarian is above 100 µM; in the assay with OVCAR-3 ovarian, 3.39 µM. The TGI in the assay on HCT-116 colon is above 100 µM; with NCI-H522 lung, above 100 µM; with SNB-75 CNS, 88.2 µM; with NCI/ADR-RES ovarian it was above 100 µM; in the assay on IGROV1 ovarian it was above 100 µM; in the assay on EKVX NSCLC it was above 100 µM. Also, the TGI in the assay on OVCAR-5 ovarian and with OVCAR-3 ovarian was above 100 µM in each case.
Take `O=C(CCc1nc(=S)[nH][nH]1)Nc1cccc(C(F)(F)F)c1`: the TGI in the assay with HCT-116 colon, with NCI-H522 lung, with SNB-75 CNS, in the assay on IGROV1 ovarian, in the assay with EKVX NSCLC and with OVCAR-5 ovarian was above 100 µM throughout. The TGI in the assay on SK-MEL-2 melanoma and in the assay with OVCAR-3 ovarian was above 100 µM throughout.
As to `N.N.N.N.N.O=S(=O)([O-])C(F)(F)F.O=S(=O)([O-])C(F)(F)F.[Os+8]`, the GI50 was 5.37 µM in the assay on HCT-116 colon; 11.1 µM in the assay with SNB-75 CNS; 21.3 µM in the assay on IGROV1 ovarian; 43.6 µM with EKVX NSCLC; 15.4 µM in the assay on OVCAR-5 ovarian; 11.7 µM in the assay with SK-MEL-2 melanoma. The TGI in the assay on HCT-116 colon is 18 µM; in the assay with SNB-75 CNS, 28.5 µM; with IGROV1 ovarian, 64.1 µM; in the assay with EKVX NSCLC it was above 100 µM; with OVCAR-5 ovarian it was 31.9 µM; in the assay with SK-MEL-2 melanoma, 24.7 µM.
For the molecule `CC1=C(Cl)C[C@@H](/C(C)=C\Cl)O[C@@]1(O)C(Br)Br`, the TGI in the assay with HS 578T breast was above 100 µM; in the assay with HCT-116 colon, above 100 µM; with NCI-H522 lung, 49.3 µM; with SNB-75 CNS, above 100 µM; in the assay with IGROV1 ovarian it was above 100 µM; in the assay on EKVX NSCLC it was 80.3 µM. The TGI with OVCAR-5 ovarian was found to be 44.2 µM; in the assay on SK-MEL-2 melanoma, 73.8 µM; in the assay with OVCAR-3 ovarian, 31.3 µM.
In the case of `COC(=O)/C(C#N)=C1\CCc2ccccc21`, the TGI with NCI-H522 lung, in the assay with SNB-75 CNS, with IGROV1 ovarian, in the assay on EKVX NSCLC, with OVCAR-5 ovarian and in the assay with SK-MEL-2 melanoma was above 100 µM each time. The same molecule came in with a TGI in the assay on OVCAR-3 ovarian above 100 µM.
For the molecule `Nc1ccc(C(=O)N/C(=C\c2cccc([N+](=O)[O-])c2)c2nc3ccc(Cl)cc3[nH]2)cc1`, the TGI in the assay with NCI-H522 lung, with IGROV1 ovarian, in the assay on EKVX NSCLC, in the assay on OVCAR-5 ovarian, with SK-MEL-2 melanoma and in the assay with OVCAR-3 ovarian was above 100 µM in each case.
As to `COc1ccc(Cc2nc3ccccc3s2)cc1OC`, the TGI amounted to 29.2 µM in the assay with HCT-116 colon; 32.2 µM with NCI-H522 lung; 36.8 µM in the assay on SNB-75 CNS; 35.7 µM in the assay on IGROV1 ovarian; 37.1 µM with EKVX NSCLC; 37.6 µM in the assay on OVCAR-5 ovarian. The TGI in the assay on SK-MEL-2 melanoma came out at 42.6 µM; with OVCAR-3 ovarian, 31 µM.
As to `O=C(O)COc1ccc(C(=O)/C(SS/C(C(=O)c2ccc(OCC(=O)O)c(Cl)c2Cl)=C2\C=C(c3ccc(Br)cc3)SS2)=C2/C=C(c3ccc(Br)cc3)SS2)c(Cl)c1Cl`, the TGI in the assay with HS 578T breast was 17.4 µM; in the assay on HCT-116 colon, 22.1 µM; in the assay on NCI-H522 lung, 3.95 µM; in the assay on SNB-75 CNS, 45.4 µM; in the assay on IGROV1 ovarian it was 23.1 µM; with EKVX NSCLC, above 100 µM. Moreover, the TGI with OVCAR-5 ovarian is above 100 µM; with SK-MEL-2 melanoma, 33.7 µM; in the assay with OVCAR-3 ovarian, 21.7 µM.
For `CC(=O)[CH-]C(=O)Nc1ccccc1.CC(=O)[CH-]C(=O)Nc1ccccc1.CC[O-].CC[O-].[Ti+4]`, the GI50 is above 100 µM in the assay on HCT-116 colon; above 100 µM with NCI-H522 lung; 61.2 µM in the assay with SNB-75 CNS; above 100 µM with IGROV1 ovarian; above 100 µM in the assay on EKVX NSCLC; above 100 µM in the assay on OVCAR-5 ovarian. Also, the GI50 with SK-MEL-2 melanoma and in the assay on OVCAR-3 ovarian was above 100 µM each time. For the same molecule, the TGI in the assay on HCT-116 colon, in the assay with NCI-H522 lung, with SNB-75 CNS, in the assay on IGROV1 ovarian, in the assay on EKVX NSCLC and with OVCAR-5 ovarian was above 100 µM throughout. Further, the TGI in the assay on SK-MEL-2 melanoma and with OVCAR-3 ovarian was above 100 µM in each case.
As to `Cc1cc(C)nc(NS(=O)(=O)c2ccc(NC(=O)c3cccn4c(=O)c5ccccc5nc34)cc2)n1`, the TGI with HCT-116 colon is above 100 µM; in the assay on NCI-H522 lung, 42.6 µM; with SNB-75 CNS, above 100 µM; with IGROV1 ovarian, above 100 µM; in the assay on EKVX NSCLC, 99.7 µM; in the assay on OVCAR-5 ovarian, above 100 µM. Besides, the TGI in the assay with SK-MEL-2 melanoma was above 100 µM.
